In ChEMBL document CHEMBL1201862, “PubChem BioAssay data set” (2004):
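Briefly, cells in 96-well plates were exposed to five compound concentrations for 48 h, and endpoints were estimated by linear interpolation. Abbreviation: GI50, concentration required for 50% inhibition of growth.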 Calls of active or inactive are those of the source. Rule as the data show it: active = GI50 up to about 1.1 µM and inactive = higher.

Tests used:
Experiment in all cases: inhibition of tumour cell growth, NCI panel, 48 h
NCI-H460 = test system: NCI-H460
M19-MEL = test system: M19-MEL
OVCAR-5 = test system: OVCAR-5
MOLT-4 = test system: MOLT-4
SR = test system: SR
EKVX = test system: EKVX
HOP-18 = test system: HOP-18
SN12C = test system: SN12C
ACHN = test system: ACHN
SF-539 = test system: SF-539
RXF 631 = test system: RXF 631
UACC-257 = test system: UACC-257
XF498 = test system: XF498
HL-60 = test system: HL-60
SF-268 = test system: SF-268
786-0 = test system: 786-0
COLO 205 = test system: COLO 205
OVCAR-8 = test system: OVCAR-8
HOP-62 = test system: HOP-62
LOX IMVI = test system: LOX IMVI
IGROV-1 = test system: IGROV-1
DMS-273 = test system: DMS-273
A498 = test system: A498
HCT-15 = test system: HCT-15
LXFL 529 = test system: LXFL 529
SK-MEL-28 = test system: SK-MEL-28
CCRF-CEM = test system: CCRF-CEM
NCI-H226 = test system: NCI-H226
SK-OV-3 = test system: SK-OV-3
SK-MEL-5 = test system: SK-MEL-5
K562 = test system: K562
SNB-75 = test system: SNB-75
DLD-1 = test system: DLD-1
U-251 = test system: U-251
TK-10 = test system: TK-10
HCT-116 = test system: HCT-116
SW-620 = test system: SW-620
KM-20L2 = test system: KM-20L2
SK-MEL-2 = test system: SK-MEL-2
HOP-92 = test system: HOP-92
SNB-78 = test system: SNB-78
SF-295 = test system: SF-295
UO-31 = test system: UO-31
RPMI-8226 = test system: RPMI-8226
A549 = test system: A549
M14 = test system: M14
RXF 393 = test system: RXF 393
HT-29 = test system: HT-29
KM12 = test system: KM12
UACC-62 = test system: UACC-62
Malme-3M = test system: Malme-3M
CAKI-1 = test system: CAKI-1
OVCAR-3 = test system: OVCAR-3
NCI-H23 = test system: NCI-H23
NCI-H522 = test system: NCI-H522
HCC 2998 = test system: HCC 2998
OVCAR-4 = test system: OVCAR-4
SNB-19 = test system: SNB-19

**Q.** Which results are given for `CCOc1ccc(NC(=O)CC2C(=O)Nc3ccccc3[S+]2[O-])cc1` (stereo not drawn)?
**A.** GI50 (NCI-H460): > 80.4 µM (inactive); GI50 (M19-MEL): > 100 µM (inactive); GI50 (OVCAR-5): > 100 µM (inactive); GI50 (MOLT-4): > 100 µM (inactive); GI50 (SR): 29.5 µM (inactive); GI50 (EKVX): > 46.5 µM (inactive); GI50 (HOP-18): > 100 µM (inactive); GI50 (SN12C): > 71 µM (inactive); GI50 (ACHN): > 52.7 µM (inactive); GI50 (SF-539): > 67.8 µM (inactive); GI50 (RXF 631): > 84.9 µM (inactive); GI50 (UACC-257): > 100 µM (inactive); GI50 (XF498): 38.8 µM (inactive); GI50 (HL-60): > 100 µM (inactive); GI50 (SF-268): 49.7 µM (inactive); GI50 (786-0): 49.1 µM (inactive); GI50 (COLO 205): > 100 µM (inactive); GI50 (OVCAR-8): 57.9 µM (inactive); GI50 (HOP-62): > 100 µM (inactive); GI50 (LOX IMVI): > 100 µM (inactive); GI50 (IGROV-1): > 90.6 µM (inactive); GI50 (DMS-273): > 67.1 µM (inactive); GI50 (A498): > 64 µM (inactive); GI50 (HCT-15): > 100 µM; GI50 (LXFL 529): > 80 µM (inactive); GI50 (SK-MEL-28): > 100 µM (inactive); GI50 (CCRF-CEM): > 100 µM (inactive); GI50 (NCI-H226): > 64.7 µM (inactive); GI50 (SK-OV-3): > 100 µM (inactive); GI50 (SK-MEL-5): > 100 µM (inactive); GI50 (K562): > 100 µM (inactive); GI50 (SNB-75): 20.1 µM (inactive); GI50 (DLD-1): > 100 µM (inactive); GI50 (U-251): 52.4 µM (inactive); GI50 (TK-10): > 71.4 µM (inactive); GI50 (HCT-116): > 85.3 µM (inactive); GI50 (SW-620): > 76.6 µM (inactive); GI50 (KM-20L2): > 46.5 µM (inactive); GI50 (SK-MEL-2): > 100 µM (inactive); GI50 (HOP-92): 23.4 µM (inactive); GI50 (SNB-78): > 100 µM (inactive); GI50 (SF-295): > 100 µM (inactive); GI50 (UO-31): > 52 µM (inactive); GI50 (RPMI-8226): > 100 µM (inactive); GI50 (A549): > 94 µM (inactive); GI50 (M14): > 100 µM (inactive); GI50 (RXF 393): 37.8 µM (inactive); GI50 (HT-29): > 100 µM (inactive); GI50 (KM12): > 100 µM (inactive); GI50 (UACC-62): > 46.5 µM (inactive); GI50 (Malme-3M): 98.2 µM (inactive); GI50 (CAKI-1): > 67 µM (inactive); GI50 (OVCAR-3): > 59.7 µM (inactive); GI50 (NCI-H23): > 76.6 µM (inactive); GI50 (NCI-H522): > 100 µM (inactive); GI50 (HCC 2998): > 64.7 µM (inactive); GI50 (OVCAR-4): > 57.1 µM (inactive); GI50 (SNB-19): 59.6 µM (inactive)
